Laboratory results as given in publication PMC12564265, “Navigating the Deep Eutectic Solvent Landscape: Experimental and Machine Learning Solubility Explorations of Syringic, p-Coumaric, and Caffeic Acids” (International Journal of Molecular Sciences, 2025).

Assay: Shake-flask solubility with spectrophotometric measurement in aqueous DES mixtures
Assay type: physicochemical
Conditions: for Increase in the solubility compared to the neat DES: 25 °C
Experimental: In order to determine the solubility of the three studied phenolic acids in deep eutectic solvents, a very well-established shake-flask method coupled with spectrophotometric measurements was utilized. The initial procedure involved the preparation of various DESs, which was conducted by mixing their HBA and HBD counterparts in a glass vessel and heating the composition until the formation of a transparent, uniform liquid. […] For additional measurements, the DESs were mixed with water in varying proportions, creating aqueous DES systems. Saturated solutions of CAF, SYR, and COU were obtained by adding excess amounts of these compounds to test tubes containing either a neat deep eutectic solvent or its aqueous solution. Such samples were placed in the Orbital Shaker Incubator ES-20/60 from Biosan (Riga, Latvia) and heated for 24 h at 25 °C, 30 °C, 35 °C, and 40 °C (±0.1 °C) with simultaneous mixing at 60 rpm. Before measurements, the samples were filtered using a PTFE syringe filter from Qpore (Dallas, TX, USA) with a 0.22 μm pore size. In order to avoid possible precipitation of the saturated solutions at decreased temperatures, the test tubes, syringes, pipette tips, and filters were kept at a temperature identical to that of the samples. The spectrophotometric measurements required the preparation of calibration curves for the three APIs. This involved the preparation of a stock solution of each compound in methanol, which was later successfully diluted, and the obtained solutions of varying concentrations were measured using an A360 spectrophotometer from AOE Instruments (Shanghai, China). The wavelength range was set to 200-500 nm, and the resolution was 1 nm. The analytical wavelengths were determined to be 324 nm for caffeic acid, 273 nm for syringic acid, and 308 nm for p-coumaric acid. The final regression equations, obtained after averaging three distinct sets of measurements, are collected in Table 2 together with determination coefficients and limits of detection (LOD) and quantification (LOQ) for the calibration curves. The measurements of the samples were conducted with the same spectrophotometer and identical settings. Methanol was used for the dilution of the samples so that they could remain within the linearity range of the method. Complete spectra of the samples were recorded, but for the solubility determination, the absorbance values at a specific analytical wavelength were considered. These values were combined with the corresponding regression equations of the calibration curves and served for the calculation of the concentration of the three phenolic acids in the studied samples. The densities of such samples were also measured, and for this task 1 mL of each sample was weighed to a precision of 0.1 mg using an AS 110 R2.PLUS analytical balance from […] (Radom, Poland). The obtained densities enabled the calculation of mole fractions of CAF, SYR, and COU dissolved in the studied DESs. For each considered system, three distinct measurements were conducted, and the results were averaged.

## COc1cc(C(=O)O)cc(OC)c1O [syringic acid, 4-hydroxy-3,5-dimethoxybenzoic acid]
Bet – TEG 1:2 + water, x*DES 0.9, 30°C
  Mole fraction solubility: 0.0551±0.0005 mole fraction
Bet – TEG 1:2 + water, x*DES 0.9, 35°C
  Mole fraction solubility: 0.0682±0.0014 mole fraction
Bet – TEG 1:2 + water, x*DES 0.9, 40°C
  Mole fraction solubility: 0.0796±0.0008 mole fraction
Bet – TEG 1:2, x*DES 1.0 (neat DES), 25°C
  Mole fraction solubility: 0.0474±0.0003 mole fraction
Bet – TEG 1:2, x*DES 1.0 (neat DES), 30°C
  Mole fraction solubility: 0.0541±0.0004 mole fraction
Bet – TEG 1:2, x*DES 1.0 (neat DES), 35°C
  Mole fraction solubility: 0.0657±0.0011 mole fraction
Bet – TEG 1:2, x*DES 1.0 (neat DES), 40°C
  Mole fraction solubility: 0.0778±0.0009 mole fraction
Bet-TEG 1:2, x*DES = 0.9 (xwater = 0.1)
  Increase in the solubility compared to the neat DES: 3%
ChCl – TEG 1:2 + water, x*DES 0.1, 25°C
  Mole fraction solubility: 0.0069±0.0001 mole fraction
ChCl – TEG 1:2 + water, x*DES 0.1, 30°C
  Mole fraction solubility: 0.0093±0.0001 mole fraction
ChCl – TEG 1:2 + water, x*DES 0.1, 35°C
  Mole fraction solubility: 0.0131±0.0001 mole fraction
ChCl – TEG 1:2 + water, x*DES 0.1, 40°C
  Mole fraction solubility: 0.0174±0.0002 mole fraction
ChCl – TEG 1:2 + water, x*DES 0.2, 25°C
  Mole fraction solubility: 0.0122±0.0001 mole fraction
ChCl – TEG 1:2 + water, x*DES 0.2, 30°C
  Mole fraction solubility: 0.0158±0.0001 mole fraction
ChCl – TEG 1:2 + water, x*DES 0.2, 35°C
  Mole fraction solubility: 0.0218±0.0001 mole fraction
ChCl – TEG 1:2 + water, x*DES 0.2, 40°C
  Mole fraction solubility: 0.0305±0.0002 mole fraction
ChCl – TEG 1:2 + water, x*DES 0.3, 25°C
  Mole fraction solubility: 0.0186±0.0001 mole fraction
ChCl – TEG 1:2 + water, x*DES 0.3, 30°C
  Mole fraction solubility: 0.0249±0.0001 mole fraction
ChCl – TEG 1:2 + water, x*DES 0.3, 35°C
  Mole fraction solubility: 0.0347±0.0003 mole fraction
ChCl – TEG 1:2 + water, x*DES 0.3, 40°C
  Mole fraction solubility: 0.0476±0.0003 mole fraction
ChCl – TEG 1:2 + water, x*DES 0.4, 25°C
  Mole fraction solubility: 0.0254±0.0003 mole fraction
ChCl – TEG 1:2 + water, x*DES 0.4, 30°C
  Mole fraction solubility: 0.0347±0.0004 mole fraction
ChCl – TEG 1:2 + water, x*DES 0.4, 35°C
  Mole fraction solubility: 0.0466±0.0004 mole fraction
ChCl – TEG 1:2 + water, x*DES 0.4, 40°C
  Mole fraction solubility: 0.0643±0.0006 mole fraction
ChCl – TEG 1:2 + water, x*DES 0.5, 25°C
  Mole fraction solubility: 0.0324±0.0002 mole fraction
ChCl – TEG 1:2 + water, x*DES 0.5, 30°C
  Mole fraction solubility: 0.0446±0.0004 mole fraction
ChCl – TEG 1:2 + water, x*DES 0.5, 35°C
  Mole fraction solubility: 0.0618±0.0006 mole fraction
ChCl – TEG 1:2 + water, x*DES 0.5, 40°C
  Mole fraction solubility: 0.0822±0.0010 mole fraction
ChCl – TEG 1:2 + water, x*DES 0.6, 25°C
  Mole fraction solubility: 0.0401±0.0004 mole fraction
ChCl – TEG 1:2 + water, x*DES 0.6, 30°C
  Mole fraction solubility: 0.0524±0.0005 mole fraction
ChCl – TEG 1:2 + water, x*DES 0.6, 35°C
  Mole fraction solubility: 0.0731±0.0007 mole fraction
ChCl – TEG 1:2 + water, x*DES 0.6, 40°C
  Mole fraction solubility: 0.0992±0.0012 mole fraction
ChCl – TEG 1:2 + water, x*DES 0.7, 25°C
  Mole fraction solubility: 0.0475±0.0003 mole fraction
ChCl – TEG 1:2 + water, x*DES 0.7, 30°C
  Mole fraction solubility: 0.0628±0.0004 mole fraction
ChCl – TEG 1:2 + water, x*DES 0.7, 35°C
  Mole fraction solubility: 0.0871±0.0005 mole fraction
ChCl – TEG 1:2 + water, x*DES 0.7, 40°C
  Mole fraction solubility: 0.1214±0.0012 mole fraction
ChCl – TEG 1:2 + water, x*DES 0.8, 25°C
  Mole fraction solubility: 0.0541±0.0003 mole fraction
ChCl – TEG 1:2 + water, x*DES 0.8, 30°C
  Mole fraction solubility: 0.0699±0.0006 mole fraction
ChCl – TEG 1:2 + water, x*DES 0.8, 35°C
  Mole fraction solubility: 0.1009±0.0006 mole fraction
ChCl – TEG 1:2 + water, x*DES 0.8, 40°C
  Mole fraction solubility: 0.1351±0.0013 mole fraction
ChCl – TEG 1:2 + water, x*DES 0.9, 25°C
  Mole fraction solubility: 0.0550 mole fraction
ChCl – TEG 1:2 + water, x*DES 0.9, 25°C, listed as syryngic acid
  Mole fraction solubility: 0.0550±0.0005 mole fraction
ChCl – TEG 1:2 + water, x*DES 0.9, 30°C
  Mole fraction solubility: 0.0718±0.0005 mole fraction
ChCl – TEG 1:2 + water, x*DES 0.9, 35°C
  Mole fraction solubility: 0.1018±0.0008 mole fraction
ChCl – TEG 1:2 + water, x*DES 0.9, 40°C
  Mole fraction solubility: 0.1373±0.0011 mole fraction
ChCl – TEG 1:2, x*DES 1.0 (neat DES), 25°C
  Mole fraction solubility: 0.0515±0.0004 mole fraction
ChCl – TEG 1:2, x*DES 1.0 (neat DES), 30°C
  Mole fraction solubility: 0.0660±0.0003 mole fraction
ChCl – TEG 1:2, x*DES 1.0 (neat DES), 35°C
  Mole fraction solubility: 0.0917±0.0006 mole fraction
ChCl – TEG 1:2, x*DES 1.0 (neat DES), 40°C
  Mole fraction solubility: 0.1234±0.0013 mole fraction
ChCl-TEG 1:2, x*DES = 0.9 (xwater = 0.1)
  Increase in the solubility compared to the neat DES: 7%
Neat DES (x*DES = 1.0) involving betaine (Bet-TEG 1:2)
  Solubility increase between 25 °C and 40 °C: 164%
Neat DES (x*DES = 1.0) with choline chloride (ChCl-TEG 1:2)
  Solubility increase between 25 °C and 40 °C: 240%
